Holding throughout (assay type): cell-based, human
One data set deals with DNMT3A 3′UTR. The experiment in a line: Luciferase reporter assay for targeting DNMT 3′UTRs (DNMT3A). To be noted: A549 cells, 100 nM precursor miR, 24 h after transfection, with respect to the scrambled oligonucleotide. The text has this: (§1) To validate these miRNA-target interactions in vivo, the DNMT3A and DNTM3B complementary sites were cloned into the 3′UTR of the firefly luciferase gene and co-transfected with miR-29a, mi-R29b or miR-29c in […] (NSCLC) cells.
Luciferase reporter assay for targeting DNMT 3′UTRs. For luciferase reporter experiments a DNMT3A 3′UTR segment of 979 bp and a DNMT3B 3′UTR segment of 978 bp were amplified by PCR from human genomic DNA and inserted into the pGL3-control vector with SV40 promoter (Promega), using the XbaI site immediately […] from the stop codon of luciferase. The following sets of primers were used to generate specific fragments:
The amplified 3′UTR of DNMT3A contains an XbaI restriction site in position 583, so we cloned separately the upstream 3′UTR (DNMT3A 3′-UTRup=583 bp) and the downstream fragment (DNMT3A 3′-UTRdown=396 bp) into the pGL3 vectors. […]
A549 cells were co-transfected in 12-well plates by using Lipofectamine 2000 reagent (Invitrogen), according to the manufacturer's protocol, with 0.4 μg of the firefly luciferase report vector and 0.08 μg of the control vector containing Renilla luciferase pRL-TK vector (Promega). […] Firefly and Renilla luciferase activities were measured consecutively by using dual-luciferase assays (Promega), 24 h after the transfection. […]

The test system of another data set is DNMT3B 3′UTR. The experiment in a line: Luciferase reporter assay for targeting DNMT 3′UTRs (DNMT3B). To be noted: A549 cells, 100 nM precursor miR, 24 h after transfection, with respect to the scrambled oligonucleotide.
Excerpt: as §1
Luciferase reporter assay for targeting DNMT 3′UTRs. For luciferase reporter experiments a DNMT3A 3′UTR segment of 979 bp and a DNMT3B 3′UTR segment of 978 bp were amplified by PCR from human genomic DNA and inserted into the pGL3-control vector with SV40 promoter (Promega), using the XbaI site immediately […] from the stop codon of luciferase. The following sets of primers were used to generate specific fragments: […]
A549 cells were co-transfected in 12-well plates by using Lipofectamine 2000 reagent (Invitrogen), according to the manufacturer's protocol, with 0.4 μg of the firefly luciferase report vector and 0.08 μg of the control vector containing Renilla luciferase pRL-TK vector (Promega). For each well, 100 nM (final) of precursor miR-29a, 29b-1, 29c or scrambled miR (Ambion) was used. Firefly and Renilla luciferase activities were measured consecutively by using dual-luciferase assays (Promega), 24 h after the transfection. The experiments were performed in triplicate.
(Reporter assays use an easily measured gene product as a stand-in for the process of interest.)

Another data set has as its system FHIT mRNA. The experiment in a line: FHIT mRNA level by qRT-PCR. The conditions noted are these: A549 cells, 48 h after transfection. On the procedure:
(§2) To characterize effects of the methylation changes on gene expression, the mRNA expression levels of two TSGs, FHIT and WWOX, which are frequently silenced by promoter methylation in lung cancer^14 were analyzed.
(§3) Quantitative RT-PCR. Quantitative RT-PCR (qRT-PCR) analysis for miRNA s was performed in triplicate with the TaqMan MicroRNA assays kit (Applied Biosystems, Foster City, Calif.), according to the manufacturer's instructions. 18S RNA was used for normalization; qRT-PCR analyses for other genes of interest were performed as previously described. RNA was reverse transcribed to cDNA with gene-specific primers and IQ SYBR Green Supermix (Biorad, Hercules, Calif.). GAPDH served as normalization control. For the silencing of miR-29s, A549 and H1299 cells were transfected in 6-well plates by using Lipofectamine 2000 reagent (Invitrogen), according to the manufacturer's protocol, with 100 nM (final) of antisense miR-29a, 29b-1, 29c or scrambled antisense miR (Fidelity Systems, Gaithersburg, Md.).
(Real-time PCR tracks product formation cycle by cycle.)

A further data set deals with WWOX mRNA. The experiment in a line: WWOX mRNA level by qRT-PCR. The conditions noted are these: A549 cells, 48 h after transfection. On the procedure: as §2, §3

In the case of “miR-29c: microRNA of the miR-29 family, SEQ ID NO: 3; transfected as precursor miR-29c (Ambion) (UAGCACCAUUUGAAAUCGGU; listed as RNA, chemistry not given here)”, the “luciferase activity (DNMT3A complementary site in 3′UTR of firefly luciferase)” value with DNMT3A 3′UTR was “significantly reduced”. The “luciferase activity (DNMT3B complementary site in 3′UTR of firefly luciferase)” value with DNMT3B 3′UTR was “significantly reduced”. Moreover, the “increase of FHIT expression (mRNA)” value in the data set on FHIT mRNA is approximately 74%.

Regarding “miR-29a: microRNA of the miR-29 family, SEQ ID NO: 1; transfected as precursor miR-29a (Ambion) (UAGCACCAUCUGAAAUCGGUU; listed as RNA, chemistry not given here)”, the “luciferase activity (DNMT3A complementary site in 3′UTR of firefly luciferase)” value with DNMT3A 3′UTR is listed as “significantly reduced”. Further, in the data set with DNMT3B 3′UTR, the “luciferase activity (DNMT3B complementary site in 3′UTR of firefly luciferase)” value is on record as “significantly reduced”. In addition, in the data set with FHIT mRNA, the “increase of FHIT expression (mRNA)” value is approximately 65%. In addition, the “increase of WWOX mRNA level” value in the data set on WWOX mRNA was approximately 40%.
